Data as given in patent publication US3992371A, “Penicillins substituted with heterocyclic and substituted phenyl groups” (Sumitomo Chemical Company, Limited, priority 1973, dated 1976).
In brackets after ≈: the same amount, converted by molar mass.

What was measured:
[1] = tested on: gram-positive and gram-negative bacteria; details: background statement; cited from earlier work
[2] = tested on: Pseudomonas; details: background statement; cited from earlier work
[3] = tested on: Proteus miravilis GN2425; experiment: Minimal inhibitory concentration, agar dilution method; type: cell-based
[4] = tested on: Proteus vulgaris HV19; experiment: as above; type: cell-based
[5] = tested on: Pseudomonas aeruginosa 104; experiment: as above; type: cell-based
Text: (§1) When determined according to the agar dilution method, the penicillins (I) afford the minimal inhibitory concentrations against test microorganisms as shown in Table 2.

[6] = tested on: Klebsiella pneumoniae PCI602; experiment: as above; type: cell-based
Text: as §1

[7] = tested on: Staphylococcus aureus 209P; experiment: as above; type: cell-based
Text: as §1

[8] = tested on: Escherichia coli NIHJ; experiment: as above; type: cell-based
Text: as §1

Molecule	MIC [3] [µg/mL]	MIC [4] [µg/mL]	MIC [5] [µg/mL]	MIC [6] [µg/mL]	MIC [7] [µg/mL]	MIC [8] [µg/mL]	inhibition of the growth of gram-positive and gram-negative bacteria [1]	antimicrobial activity against Pseudomonas [2]
6(α-amino-thienylacetamido)penicillanic acid							inhibit the growth of various gram-positive and gram-negative bacteria	do not exert any appreciable antimicrobial activity against Pseudomonas
6-(α-amino-isothiazolylacetamido)penicillanic acid							inhibit the growth of various gram-positive and gram-negative bacteria	do not exert any appreciable antimicrobial activity against Pseudomonas
CC1(C)S[C@@H]2C(NC(=O)C(N)c3ccc(O)cc3)C(=O)N2[C@H]1C(=O)O (stereo partly drawn) [Amoxycillin, 6-(α-amino-p-hydroxyphenylacetamido)penicillanic acid]							inhibit the growth of various gram-positive and gram-negative bacteria	do not exert any appreciable antimicrobial activity against Pseudomonas
COc1ccc(C(NC(=O)c2cnc3cn[nH]c3c2O)C(=O)NC2C(=O)N3C2SC(C)(C)C3C(=O)O)cc1 (stereo not drawn) [Example 34]	6.25 (≈ 11.6 µM)	0.1 (≈ 0.185 µM)	3.13 (≈ 5.79 µM)	12.5 (≈ 23.1 µM)	0.78 (≈ 1.44 µM)	3.13 (≈ 5.79 µM)		
CC1(C)SC2C(NC(=O)C(NC(=O)c3cnc4scnc4c3O)c3cccc(N)c3)C(=O)N2C1C(=O)O (stereo not drawn) [Example 40]	1.56 (≈ 2.88 µM)	0.025 (≈ 0.0461 µM)	1.56 (≈ 2.88 µM)	6.25 (≈ 11.5 µM)	1.56 (≈ 2.88 µM)	1.56 (≈ 2.88 µM)		
COc1ccc(C(NC(=O)c2cnc3ccncc3c2O)C(=O)NC2C(=O)N3C2SC(C)(C)C3C(=O)O)cc1 (stereo not drawn) [Example 41]	12.5 (≈ 22.7 µM)	0.39 (≈ 0.707 µM)	3.13 (≈ 5.67 µM)	12.5 (≈ 22.7 µM)	1.56 (≈ 2.83 µM)	3.13 (≈ 5.67 µM)		
CC1(C)SC2C(NC(=O)C(NC(=O)c3cnc4nc(N)ncc4c3O)c3cccc(N)c3)C(=O)N2C1C(=O)O (stereo not drawn) [Example 42]	1.56 (≈ 2.82 µM)	0.05 (≈ 0.0905 µM)	3.13 (≈ 5.66 µM)	12.5 (≈ 22.6 µM)	1.56 (≈ 2.82 µM)	3.13 (≈ 5.66 µM)		

Further molecules by falling MIC [3], results first:

MIC [3] [µg/mL]	MIC [4] [µg/mL]	MIC [5] [µg/mL]	MIC [6] [µg/mL]	MIC [7] [µg/mL]	MIC [8] [µg/mL]	Molecule	inhibition of the growth of gram-positive and gram-negative bacteria [1]	antimicrobial activity against Pseudomonas [2]
12.5 (≈ 19.6 µM)	0.1 (≈ 0.157 µM)	3.13 (≈ 4.91 µM)	12.5 (≈ 19.6 µM)	1.56 (≈ 2.45 µM)	3.13 (≈ 4.91 µM)	CCOC(=O)Oc1c(C(=O)NC(C(=O)NC2C(=O)N3C2SC(C)(C)C3C(=O)O)c2ccc(OC)cc2)cnc2ccc(C)nc12 (stereo not drawn) [Example 46]		
6.25 (≈ 10.5 µM)	0.39 (≈ 0.655 µM)	3.13 (≈ 5.25 µM)	12.5 (≈ 21 µM)	0.78 (≈ 1.31 µM)	6.25 (≈ 10.5 µM)	CC1(C)SC2C(NC(=O)C(NC(=O)c3cnc4cc5c(cc4c3S)OCO5)c3cccc(N)c3)C(=O)N2C1C(=O)O (stereo not drawn) [Example 36]		
6.25 (≈ 11 µM)	0.39 (≈ 0.688 µM)	3.13 (≈ 5.52 µM)	12.5 (≈ 22.1 µM)	0.78 (≈ 1.38 µM)	6.25 (≈ 11 µM)	COc1ccc(C(NC(=O)c2cnc3ccccc3c2S)C(=O)NC2C(=O)N3C2SC(C)(C)C3C(=O)O)cc1 (stereo not drawn) [Example 38]		
6.25 (≈ 11.1 µM)	0.05 (≈ 0.0884 µM)	3.13 (≈ 5.53 µM)	12.5 (≈ 22.1 µM)	1.56 (≈ 2.76 µM)	3.13 (≈ 5.53 µM)	COc1ccc(C(NC(=O)c2cnc3ccc(C)nc3c2O)C(=O)NC2C(=O)N3C2SC(C)(C)C3C(=O)O)cc1 (stereo not drawn) [Example 44]		
6.25 (≈ 10.8 µM)	0.1 (≈ 0.173 µM)	1.56 (≈ 2.7 µM)	6.25 (≈ 10.8 µM)	1.56 (≈ 2.7 µM)	3.13 (≈ 5.41 µM)	Cc1ccc2ncc(C(=O)NC(C(=O)NC3C(=O)N4C3SC(C)(C)C4C(=O)O)c3ccc(N(C)C)cc3)c(O)c2n1 (stereo not drawn) [Example 45]		
1.56 (≈ 2.76 µM)	0.025 (≈ 0.0442 µM)	1.56 (≈ 2.76 µM)	6.25 (≈ 11 µM)	1.56 (≈ 2.76 µM)	0.78 (≈ 1.38 µM)	Cc1nc(C)c2ncc(C(=O)NC(C(=O)NC3C(=O)N4C3SC(C)(C)C4C(=O)O)c3cccc(N)c3)c(O)c2n1 (stereo not drawn) [Example 35]		
1.56 (≈ 2.82 µM)	0.05 (≈ 0.0905 µM)	0.78 (≈ 1.41 µM)	12.5 (≈ 22.6 µM)	1.56 (≈ 2.82 µM)	1.56 (≈ 2.82 µM)	CC1(C)SC2C(NC(=O)C(NC(=O)c3cnc4cccnc4c3S)c3cccc(N)c3)C(=O)N2C1C(=O)O (stereo not drawn) [Example 37]		
1.56 (≈ 2.75 µM)	0.05 (≈ 0.0882 µM)	3.13 (≈ 5.52 µM)	12.5 (≈ 22.1 µM)	1.56 (≈ 2.75 µM)	3.13 (≈ 5.52 µM)	CNc1ncc2c(O)c(C(=O)NC(C(=O)NC3C(=O)N4C3SC(C)(C)C4C(=O)O)c3cccc(N)c3)cnc2n1 (stereo not drawn) [Example 43]		
1.56 (≈ 2.89 µM)	0.05 (≈ 0.0927 µM)	1.56 (≈ 2.89 µM)	12.5 (≈ 23.2 µM)	1.56 (≈ 2.89 µM)	1.56 (≈ 2.89 µM)	CC1(C)SC2C(NC(=O)C(NC(=O)c3cnc4cccnc4c3O)c3cccc(F)c3)C(=O)N2C1C(=O)O (stereo not drawn) [Example 47]		
0.78 (≈ 1.37 µM)	0.025 (≈ 0.044 µM)	0.78 (≈ 1.37 µM)	6.25 (≈ 11 µM)	0.78 (≈ 1.37 µM)	0.78 (≈ 1.37 µM)	COc1cnc2c(O)c(C(=O)NC(C(=O)NC3C(=O)N4C3SC(C)(C)C4C(=O)O)c3cccc(N)c3)cnc2n1 (stereo not drawn) [Example 39]		
